According to patent US9241976B2, “Use of HDL-related molecules to treat and prevent proinflammatory conditions” (THE REGENTS OF THE UNIVERSITY OF CALIFORNIA, priority 2011, dated 2016):

Legend:
[1] = system: IL-6; test: Plasma IL-6 ELISA; type: in vivo, mouse; conditions: lung tumor mice; 10 mg/kg/d subcutaneously for 3 weeks; vs control group
Protocol: Interleukin (IL)-6 concentrations were measured in plasma by a competition ELISA according to the manufacture's protocol (Invitrogen).

[2] = system: HIF-1α; test: HIF-1α protein stability with cycloheximide in OV2008 cells; type: cell-based, human; conditions: insulin 200 nM, CHX 20 μg/ml, L-4F 10 μg/ml
Protocol: FIGS. 11A-11B. Effect of L-4F on HIF-1α protein stability in OV2008 cells. FIG. 11A, left, pretreatment of L-4F promotes HIF-1α degradation in OV2008 cells. After an overnight starvation, OV2008 cells were treated with insulin (200 nM) for 3 h, L-4F (10 μg/ml) for 1 h, and CHX (20 μg/ml) for various durations. Cell lysates were collected and subjected to Western blot analysis. […] Right, L-4F treatment promotes HIF-1α degradation in OV2008 cells. After an overnight starvation, OV2008 cells were treated with insulin (200 nM) for 3 h and then treated with L-4F (10 μg/ml) and CHX (20 μg/ml) at the same time. Cell lysates were collected at various time points and subjected to Western blot analysis. […] FIG. 11B, effect of pretreatment of L-4F on proteasome-mediated degradation of HIF-1α in insulin-treated OV2008 cells. After an overnight starvation, OV2008 cells were treated with MG-132 (10 μM) for 3 h, L-4F (10 μg/ml) for 1 h, and insulin (200 nM) for an additional 4 h. Cell lysates were collected and subjected to Western blot analysis.
Western blot analyses were performed as described previously (Gao et al., 2011). […]

[3] = system: CT26 cells; test: CT26 proliferation assay (BrdU incorporation); type: cell-based, mouse; conditions: Example 5; 10 mg/mL, 48 hours
Protocol: The bHDL were dissolved in H2O.
The peptides were dissolved in H2O.

[4] = system: NIH3T3 cells; test: NIH3T3 cell viability, MTS assay; type: cell-based; conditions: 10 μg/mL, 48 hours
Protocol: CT26 and NIH3T3 cells (2,000 cells per well) were first cultured in complete medium in 96-well culture plates, and 24 hours later the medium was replaced with serum-free medium. […] Cells were incubated for an additional 48 hours and assayed for viability using MTS assays kit (Promega) according to the manufacturer's protocol.

[5] = system: HIF-1α; test: Immunofluorescence staining of nuclear HIF-1α in OV2008 cells; type: cell-based, human
Protocol: Immunofluorescence staining was performed as described previously (Lee et al., 2006). In brief, OV2008 cells were plated onto a glass slip (Thermo Fisher Scientific) in 24-well plates at 4×10^4 cells per well and grown in complete medium overnight. After starvation overnight, cells were subjected to L-4F treatment in the presence or absence of stimulators. Then, cells were fixed in 4% neutral buffered formaldehyde for 25 min at room temperature, permeabilized with 0.5% Triton X-100 in PBS for 10 min, and blocked with 10% normal goat serum, 1% bovine serum albumin, and 0.3 M glycine prepared in PBS for 1 h. Cells were incubated with mouse anti-HIF-1α (1:200) overnight at 4° C. and incubated with Alexa Fluor 568 goat anti-mouse IgG (Invitrogen) for 1 h. Finally, cells were covered with VectaMount solution containing DAPI (Vector Laboratories, Burlingame, Calif.), and images were captured with a fluorescence microscope (Olympus IX70).

[6] = system: p70s6 kinase; test: Insulin-stimulated phosphorylation of S6 kinase in OV2008 cells, Western blot; type: cell-based, human; conditions: 10 μg/ml, insulin 200 nM
Protocol: FIGS. 10A-10B. Effect of L-4F on the insulin-stimulated activation of downstream signaling molecules in OV2008 cells. After an overnight starvation, OV2008 cells were treated with L-4F (10 μg/ml) for 1 h, and insulin was added at a final concentration of 200 nM. Cell lysates were collected at various time points and subjected to Western blot analysis. FIG. 10A, L-4F inhibits insulin-stimulated phosphorylation of p70s6 kinase and subsequent HIF-1α expression in OV2008 cells. FIG. 10B, effect of L-4F on insulinstimulated phosphorylation of ERK1/2 and Akt in OV2008 cells.
Western blot analyses were performed as described previously (Gao et al., 2011). In brief, cell lysates were collected in a lysis buffer containing 0.1 MNaCl, 5 mM EDTA, 50 μM sodium orthovanadate, 1% Triton X-100, and protease inhibitor tablet (Roche Diagnostics, Indianapolis, Ind.) in 50 mM Tris buffer, pH 7.5, loaded onto 4 to 12% Bis-Tris gel (Invitrogen), transferred to polyvinylidene difluoride membrane, and incubated with the appropriate antibodies. […]

[7] = system: ID8 cells; conditions: cited from earlier work
[8] = system: CT26 cells; test: Tumor-load study: CT26 flank tumors in BALB/c mice; type: in vivo, mouse
Protocol: (§1) 6-week-old BALB/c female mice were given a 100 μL subcutaneous injection of 1×10^6 CT26 cells prepared as a single cell suspension in PBS, and the mice were treated with bHDLor BHDLat 10 mg/kg administered subcutaneously (SQ) daily for 15 days. The mice were sacrificed and tumor weights were measured.
6-week-old BALB/c female mice were given a 100 μl subcutaneous injection of 1×10^6 CT26 cells prepared as a single cell suspension in PBS, treated with peptide at 10 mg/kg by SQ daily for 15 days.
The mice were killed and tumor weights were measured. The tumor volumes were measured using the formula V=½ (L×W^2).
as §1, with “Six-week-old” for “6-week-old”, “[…]” for “μL”, “sc-4F or L-4F at” for “bHDLor BHDLat”, “subcutaneously” for “subcutaneously (SQ)”

[9] = system: lysophosphatidic acid (LPA); test: Plasma LPA levels in treated mice; type: in vivo, mouse; conditions: for plasma LPA levels: vs control mice
Protocol: LPA (20:4) was purchased from Avanti Polar Lipids. LPA levels were determined as described previously (Murph et al., 2007, Methods Enymol 433:1-25).
LPA (20:4) was purchased from Avanti Polar Lipids. LPA levels were determined as described previously (19).

[10] = Example 3, 10 mg/kg subcutaneous daily for 15 days

Substance: Ac-DWFKAFYDKVAEKFKEAF-NH2 [L-4F, Ac-D-W-F-K-A-F-Y-D-K-V-A-E-K-F-K-E-A-F-NH2]
- IL-6 levels in plasma [1]: significantly decreased
- degradation of HIF-1α protein [2]: accelerated the degradation
- proliferation of CT26 cells, BrdUrd incorporation [3]: significantly inhibited
- NIH3T3 cell viability [4]: not affected
- nuclear expression of HIF-1α, post-treatment ([5]; OV2008 cells stimulated first with CoCl2 or insulin, 10 μg/ml): decreased nuclear expression
- CoCl2- and insulin-induced accumulation of HIF-1α in nuclei ([5]; OV2008 cells, pretreatment): dramatically reversed
- insulin-stimulated phosphorylation of S6 kinase [6]: prevented phosphorylation
- ID-8 cell-mediated tumor burden ([7]; C57BL/6J mice, administered subcutaneously or orally, reference (17)): decreased
- tumor growth and angiogenesis ([7]; immunocompetent mouse model of ovarian cancer, ID8 (Gao et al., 2011)): inhibited
- flank tumor volume [8, 10]: 313 mm^3
- flank tumor weight [8, 10]: 179 mg
- flank tumor weights ([8]; Example 5, 10 mg/kg subcutaneously daily for 15 days): 389 mg
- plasma LPA levels ([9]; BALB/c lung tumor mice, 100 mg/kg/d in chow for 3 weeks): significantly reduced
- plasma LPA levels ([9]; C57BL/6J-APC^min/+ mice, 100 mg/kg/d in mouse chow for 8 weeks): significantly reduced
- decrease of plasma LPA levels compared with control mice ([9]; C57BL/6J-APC^min/+ mice, chow, 8 weeks): > 50%
